Experimental data: PubChem BioAssay AID1895 (NMMLSC, 2009)
Activity calls are given as the source filed them. No rule for the calls is given here.

Molecular target: MEK5 PB1 domain binding to MEKK2 (MAP3K2) mutant PB1, human
Experiment: mutant MEKK2 PB1-MEK5 interaction blockers – biochemical, bead multiplex flow cytometry, dose response (AID 1895)
Conditions: Bead-based multiplex flow cytometry

| EC50 | Structure (SMILES) |
| --- | --- |
| inactive | CCN1C(c2ccccc2)=C(c2ccccc2)S/C1=C/C=C1\SC(=S)N(C)C1=O |
| > 30 µM (inactive) | C#CCOCCOCCOCCNc1nc(N2CCN(C(=O)[C@H]([C@@H](C)CC)n3cc([C@@H](N)CO)nn3)CC2)nc(N2CCN(C(=O)[C@H](Cc3cc4ccccc4[nH]3)n3cc([C@@H](N)C(C)CC)nn3)CC2)n1 (stereo not given in full) |
| > 30 µM (inactive) | CCN(CC)CCOC(=O)c1ccc(N/C=C(/C#N)c2nc(-c3cccc(OC)c3)cs2)cc1 |
| > 30 µM (inactive) | C#CCOCCOCCOCCNc1nc(N2CCN(C(=O)[C@H](Cc3ccc(O)cc3)n3cc([C@@H](N)CC(C)C)nn3)CC2)nc(N2CCN(C(=O)[C@H](Cc3cc4ccccc4[nH]3)n3cc([C@@H](N)CC(C)C)nn3)CC2)n1 |
| > 30 µM (inactive) | NC(N)=N/N=C/c1ccc(OCc2ccccc2Cl)cc1 |
| 6 µM | CCCCCCCCCCOC(=O)Cn1c(COc2ccccc2)[n+](C)c2ccccc21 |
| > 30 µM (inactive) | CNC[C@H](CC1CCCCC1)NC[C@H](Cc1ccccc1)NCCC12CC3CC(CC(C3)C1)C2 |
| 2.38 µM | CCOC(=O)C1=C(c2ccccc2)NC(N)=NC1c1ccc(OCc2ccc(C(=O)OC)cc2)cc1 (stereo not given) |
| inactive | Cc1cc2ccccc2n1CCNC(=O)c1ccc(Br)o1 |
| > 30 µM (inactive) | COc1ccc(CSc2n[nH]c(C)n2)cc1[N+](=O)[O-] |
| > 30 µM (inactive) | CC(C)n1cc(CN2CCC(C(=O)Nc3cccc(-c4cccc(Cl)c4)c3)CC2)cn1 |
| > 30 µM (inactive) | CCN1CCN(Cc2ccc(NC(=O)c3cc(NC(=O)c4cncc(-c5cccs5)c4)cc(OC)c3)cc2C(F)(F)F)CC1 |
| > 30 µM (inactive) | COC(=O)c1c(C)oc(C)c1S(=O)(=O)N(Cc1ccccc1)C(C)C |
| > 30 µM (inactive) | COc1ccc(-c2csc(N(CCCN(C)C)C(=O)c3ccccc3Cl)n2)cc1 |
| 14.7 µM | C#CCOCCOCCOCCNc1nc(N2CCN(C(=O)[C@H]([C@@H](C)CC)n3cc([C@@H](N)Cc4ccc(O)cc4)nn3)CC2)nc(N2CCN(C(=O)[C@H](CCCCN)n3cc([C@@H](N)CC(C)C)nn3)CC2)n1 |
| > 30 µM (inactive) | O=C1c2ccccc2-c2onc3ccc(NCc4ccco4)c1c23 |
| 4.43 µM | CCNc1ccc2noc3c2c1C(=O)c1ccccc1-3 |
| 6.53 µM | CCN1CCN(CCNC(=O)c2ccc(/C=C3/Sc4ccccc4N(Cc4cccc(Cl)c4)C3=O)cc2)CC1 |
| 22.8 µM | CCCCN(CC)CCNC(=O)c1cc2c(-c3ccc(Cl)cc3)nn(C)c2s1 |
| > 30 µM (inactive) | CCOc1ccc(C2=C/C(=C/c3cccnc3)C(=O)O2)cc1 |
| 10.3 µM | CCOC(=O)c1c(CSC(=N)N)n(-c2ccc(C)cc2)c2cc(Br)c(OC(C)=O)cc12 |
| 4.06 µM | CN(C)CCNc1ncnc2c1sc1nc(-c3ccccc3)c3c(c12)CCCC3 |
| inactive | Cc1nn2c(N)csc2nc1=O |
| > 30 µM (inactive) | COc1ccc(NC(=O)N(Cc2cc3cc(C)ccc3[nH]c2=O)CC2CCCO2)cc1 (stereo not given) |
| > 30 µM (inactive) | C#CCOCCOCCOCCNc1nc(N2CCN(C(=O)[C@H](CCC(=O)O)n3cc(C(N)CO)nn3)CC2)nc(N2CCN(C(=O)[C@H](Cc3cc4ccccc4[nH]3)n3cc(C(N)[C@H](C)CC)nn3)CC2)n1 (stereo not given in full) |
| > 30 µM (inactive) | OCCCCNCc1ccc(OCc2ccc(Cl)cc2Cl)cc1 |
| 13.2 µM | COc1ccc(C2NCCc3c2[nH]c2ccccc32)cc1CN1CCc2cc(OC)c(OC)cc2C1C (stereo not given) |

| EC50 | Structure (SMILES) |
| --- | --- |
| 5.52 µM | CCN(CC)CCOc1ccc2c(c1)C(=NNC(=O)c1ccccn1)c1cc(OCCN(CC)CC)ccc1-2 |
| > 30 µM (inactive) | COc1ccc(Cn2cc3c(-c4ccc(F)cc4)nnc-3c3cc(OC)c(OC)cc32)cc1 |
| > 30 µM (inactive) | C#CCOCCOCCOCCNc1nc(N2CCN(C(=O)C(Cc3ccc(O)cc3)n3cc(C(N)CC(C)C)nn3)CC2)nc(N2CCN(C(=O)C(Cc3cc4ccccc4[nH]3)n3cc(C(N)C(C)CC)nn3)CC2)n1 (stereo not given) |
| inactive | CCCN1C(=O)/C(=C\C=C2/Sc3ccccc3N2CC)SC1=S |
| > 30 µM (inactive) | Cc1ccc(-c2csc(NC(=O)C[n+]3cc(-c4ccc(C)cc4)n4c3CCC4)n2)cc1 |
| 6.89 µM | CCCCCCCCCCCCCCCC[n+]1cccc2ccccc21 |
| 25.1 µM | C#CCOCCOCCOCCNc1nc(N2CCN(C(=O)[C@H](Cc3ccc(O)cc3)n3cc([C@@H](N)CC(C)C)nn3)CC2)nc(N2CCN(C(=O)[C@H](Cc3ccc(O)cc3)n3cc([C@@H](N)CC(C)C)nn3)CC2)n1 |
| > 30 µM (inactive) | CCN1CCN(Cc2ccc(NC(=O)c3cc(NC(=O)c4cnn(-c5ccccc5)c4N)cc(OC)c3)cc2C(F)(F)F)CC1 |
| > 30 µM (inactive) | CCN(CC)CCOC(=O)c1ccc(N/C=C(/C#N)c2nc(-c3ccc(OC)c(OC)c3)cs2)cc1 |
| > 30 µM (inactive) | CCn1cc(C(=O)O)c(=O)c2cc(F)c(N3CCN(C(=S)NC(=O)c4ccc(Br)cc4)CC3)cc21 |
| > 30 µM (inactive) | CC(=O)Nc1ccc(OCC(O)Cn2c3ccccc3c3ccccc32)cc1 (stereo not given) |
| > 30 µM (inactive) | COc1ccc(Cn2c(SCc3ccccc3C)nc3cc(OC)c(OC)cc3c2=N)cc1 |
| > 30 µM (inactive) | CCC(/C=C1\Sc2ccc(OC)cc2N1CC)=C\c1sc2ccc(OC)cc2[n+]1CCCS(=O)(=O)[O-] |
| > 30 µM (inactive) | O=C(CCCC(=O)N(CC(=O)NC1CCCC1)C1CCCC1)Nc1ccccn1 |
| > 30 µM (inactive) | COc1ccc(C(CCNCc2ccc(OC(C)C)cc2)c2ccccc2OC)cc1 (stereo not given) |
| inactive | C=CCN1C(=O)/C(=C/c2ccc(-c3ccc(F)cc3)o2)SC1=S |
| > 30 µM (inactive) | CN1CCN(CC(O)COc2ccc(C34CC5CC(CC(C5)C3)C4)cc2)CC1 (stereo not given) |
| 4.62 µM | CCc1ccc(Nc2n[n+](-c3ccccc3)c(-c3ccc(OC)c(Br)c3)s2)cc1 |
| > 30 µM (inactive) | CCN(CC)CCOC(=O)c1ccc(NC(=O)c2cn(-c3ccccc3)nc2-c2cccs2)cc1 |
| inactive | CN(c1ccccc1)c1ccc(/C=c2\s/c(=C(/C#N)C(=O)C(C)(C)C)n(Cc3ccco3)c2=O)cc1 |
| > 30 µM (inactive) | COc1ccc(-c2cc(C#N)nc(N3CCNCC3)n2)cc1 |
| > 30 µM (inactive) | NC(=NCCCCCCN=C(N)/N=C(\N)Nc1ccc(Cl)cc1)/N=C(\N)Nc1ccc(Cl)cc1 |
| > 30 µM (inactive) | C#CCOCCOCCOCCNc1nc(N2CCN(C(=O)[C@H]([C@@H](C)CC)n3cc([C@@H](N)CC(C)C)nn3)CC2)nc(N2CCN(C(=O)[C@H](Cc3cc4ccccc4[nH]3)n3cc([C@@H](N)Cc4ccc(O)cc4)nn3)CC2)n1 |
| 10.6 µM | CCN1CCN(CCNC(=O)c2ccc(/C=C3/Sc4ccccc4N(Cc4cccc(C)c4)C3=O)cc2)CC1 |
| > 30 µM (inactive) | CCCCCc1cc(=O)oc2c(C(CCN3CCCC(C)C3)c3ccc4c(c3)OCO4)c(OC)cc(OC)c12 (stereo not given) |
| > 30 µM (inactive) | N#CC(C#N)=c1ccc2c(c1)N1C(c3ccccc3)=CC(c3ccccc3)C3CCCCC31N=2 (stereo not given) |
| > 30 µM (inactive) | O=C1c2ccccc2-c2onc3ccc(NCCCn4ccnc4)c1c23 |

| EC50 | Structure (SMILES) |
| --- | --- |
| > 30 µM (inactive) | Nc1ccc(N)c(C(=O)O)c1 |
| > 30 µM (inactive) | COCCNC(=O)CN(c1cc(Cl)ccc1OC)S(=O)(=O)c1ccc(C)c([N+](=O)[O-])c1 |
| 1.02 µM | CCCCCCCCCCOC(=O)Cn1c(COc2ccccc2C)[n+](C)c2ccccc21 |
| 14.4 µM | CCCCCCOc1ccc(/C(C)=N/NC2=NCCN2)cc1[N+](=O)[O-] |
| > 30 µM (inactive) | CCCCCc1cc(=O)oc2c(C(CCN3CCCCC3)c3ccc(OC)cc3)c(OC)cc(OC)c12 (stereo not given) |
| 9.98 µM | CCCOc1ccc2c(c1)C(=NN=C(N)N)c1cc(OCCC)ccc1-2 |
| > 30 µM (inactive) | Cc1cc2ccccc2n1CCNC(=O)c1ccccc1 |
| > 30 µM (inactive) | CCN1/C(=C/C(C)=C/c2sc3ccccc3[n+]2CC)Sc2ccccc21 |
| > 30 µM (inactive) | CCOC(=O)c1c(C)n(-c2ccc(C)cc2)c2ccc(OCC(O)CN3CCN(C)CC3)cc12 (stereo not given) |
| 1.77 µM | CCN1/C(=C/c2ccc3cc(C)cc(C)c3[n+]2CC)Sc2cc(C)ccc21 |
| 24.9 µM | C#CCOCCOCCOCCNc1nc(N2CCN(C(=O)[C@H](Cc3ccc(O)cc3)n3cc([C@@H](N)C(C)CC)nn3)CC2)nc(N2CCN(C(=O)[C@H](Cc3cc4ccccc4[nH]3)n3cc([C@@H](N)CC(C)C)nn3)CC2)n1 (stereo not given in full) |
| > 30 µM (inactive) | O=C(NNc1c2ccccc2nc2ccccc12)c1cc2ccccc2cc1O |
| > 30 µM (inactive) | CC(=O)c1c(C)[nH]c(C(=O)NC2=NCCS2)c1C |
| > 30 µM (inactive) | NC(=O)CSc1nnc(Cc2ccc3c(c2)OCO3)o1 |
| 9.64 µM | CCOC(=O)C1=C(c2ccccc2)NC(N)=NC1c1ccc(OCc2ccc(Cl)cc2)c(OC)c1 (stereo not given) |
| inactive | Nc1cc2nc[nH]c2cc1N |
| inactive | CCC(=C/c1sc2ccc3ccccc3c2[n+]1C)/C=C1\Sc2ccc3ccccc3c2N1C |
| 2.66 µM | NC(N)=N/N=C/c1ccc(OCc2ccc(Cl)cc2Cl)cc1 |
| > 30 µM (inactive) | CCCCCCCCCCOC(=O)Cn1c(COc2ccccc2OC)[n+](C)c2ccccc21 |
| > 30 µM (inactive) | c1ccc(CNc2nc(NCc3ccccc3)c3ccccc3n2)cc1 |
| > 30 µM (inactive) | CC(=O)Nc1cccc2c1C(=O)N(c1cccc(C)c1)C2=O |
| 8.53 µM | N=C(N)SCc1cn(-c2ccccc2)nc1-c1ccc(Br)cc1 |
| 8.3 µM | CCc1ccc(Nc2n[n+](-c3ccccc3)c(-c3cc(OC)c(OC)cc3Br)s2)cc1 |
| > 30 µM (inactive) | C/C(=N\NC(=O)c1cc(O)cc(O)c1)c1ccc(NC(=O)Cc2ccccc2)cc1 |
| > 30 µM (inactive) | Cc1ccccc1OCC(O)CNC1CCC(NCC(O)COc2ccccc2C)CC1 (stereo not given) |
| > 30 µM (inactive) | Cc1cc2cc(CNC(=O)NC3CCCCC3)ccc2[nH]1 |

| Structure (SMILES) | EC50 |
| --- | --- |
| O=C(OCC1O[C@@H](OC(=O)c2cc(O)c(O)c(O)c2)[C@@H](OC(=O)c2cc(O)c(O)c(O)c2)[C@@H](OC(=O)c2cc(O)c(O)c(O)c2)[C@@H]1OC(=O)c1cc(O)c(O)c(O)c1)c1cc(O)c(O)c(O)c1 (stereo not given in full) | > 30 µM (inactive) |

Same assay, conditions: Bead-based multiplex flow cytometry, measured here: Ki for PB1 binding

| Ki | Structure (SMILES) |
| --- | --- |
| 3.16 µM | CCN1C(c2ccccc2)=C(c2ccccc2)S/C1=C/C=C1\SC(=S)N(C)C1=O |
| 2.87 µM | Cc1cc2ccccc2n1CCNC(=O)c1ccc(Br)o1 |
| 4.34 µM | CCNc1ccc2noc3c2c1C(=O)c1ccccc1-3 |
| 3.34 µM | Cc1nn2c(N)csc2nc1=O |
| 2.61 µM | CCCN1C(=O)/C(=C\C=C2/Sc3ccccc3N2CC)SC1=S |
| 0.16 µM | CN(c1ccccc1)c1ccc(/C=c2\s/c(=C(/C#N)C(=O)C(C)(C)C)n(Cc3ccco3)c2=O)cc1 |
| 1.73 µM | CCN1/C(=C/c2ccc3cc(C)cc(C)c3[n+]2CC)Sc2cc(C)ccc21 |
| 5.77 µM | Nc1cc2nc[nH]c2cc1N |
| 0.14 µM | CCC(=C/c1sc2ccc3ccccc3c2[n+]1C)/C=C1\Sc2ccc3ccccc3c2N1C |
